{"source": "ChEMBL document CHEMBL3769388", "about": "“Optimization of a Dicarboxylic Series for in Vivo Inhibition of Citrate Transport by the Solute Carrier 13 (SLC13) Family” (J Med Chem, 2016)", "key": {"[1]": {"target": "Na(+)/citrate cotransporter (Homo sapiens, UniProt Q86YT5)", "assay": "Inhibition of NaCT in human hepatocytes assessed as [14C]-citrate uptake after 30 mins by scintillation counting method", "format": "cell-based, Hepatocyte"}, "[2]": {"target": "Na(+)/dicarboxylate cotransporter 3 (Homo sapiens, UniProt Q8WWT9)", "sequence (Q8WWT9 whole entry)": "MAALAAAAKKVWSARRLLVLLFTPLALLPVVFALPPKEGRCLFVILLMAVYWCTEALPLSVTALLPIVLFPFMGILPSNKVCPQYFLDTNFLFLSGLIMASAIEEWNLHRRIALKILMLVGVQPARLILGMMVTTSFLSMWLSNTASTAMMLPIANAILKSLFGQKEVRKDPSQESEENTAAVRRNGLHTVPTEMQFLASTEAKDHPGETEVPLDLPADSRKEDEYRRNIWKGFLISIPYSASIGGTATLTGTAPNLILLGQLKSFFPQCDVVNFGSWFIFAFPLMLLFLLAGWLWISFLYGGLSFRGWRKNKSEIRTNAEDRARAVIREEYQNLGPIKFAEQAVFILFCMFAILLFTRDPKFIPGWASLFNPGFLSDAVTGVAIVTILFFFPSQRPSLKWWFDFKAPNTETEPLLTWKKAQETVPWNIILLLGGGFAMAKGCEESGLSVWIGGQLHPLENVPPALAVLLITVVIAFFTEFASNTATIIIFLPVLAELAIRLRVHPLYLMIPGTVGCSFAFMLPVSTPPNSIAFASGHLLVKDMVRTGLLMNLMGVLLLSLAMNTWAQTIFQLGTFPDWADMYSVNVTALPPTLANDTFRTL", "assay": "Inhibition of NaDC3 (unknown origin) expressed in HEK293 cells assessed as inhibition of [14C]citrate uptake by microbeta plate reader analysis", "format": "cell-based"}, "[3]": {"assay": "Clearance in rat hepatocytes assessed per 10^6 cells", "format": "ADME, cell-based, Hepatocyte", "conditions": "read-out: CLH"}, "Rattus norvegicus [4]": {"test_system": "Rattus norvegicus", "assay": "Decrease in [14C]citrate uptake in iv dosed Wistar Han rat liver measured after 185 to 200 mins by scintillation counting method", "format": "functional, organism-based"}, "Rattus norvegicus [5]": {"test_system": "Rattus norvegicus", "assay": "Decrease in [14C]citrate uptake in iv dosed Wistar Han rat kidney measured after 185 to 200 mins by scintillation counting method", "format": "functional, organism-based"}, "[6]": {"assay": "Fraction unbound in Wistar Han rat by equilibrium dialysis method", "format": "ADME"}, "[7]": {"assay": "Total plasma clearance in Wistar Han rat at 1 mg/kg, iv by LC-MS/MS analysis", "format": "ADME, organism-based"}, "[8]": {"assay": "Renal clearance in Wistar Han rat at 1 mg/kg, iv by LC-MS/MS analysis", "format": "ADME, organism-based, Kidney", "conditions": "in vivo"}, "[9]": {"assay": "Volume of distribution at steady state in Wistar Han rat at 1 mg/kg, iv by LC-MS/MS analysis", "format": "ADME, organism-based", "conditions": "in vivo, read-out: Vdss"}, "Mus musculus [10]": {"test_system": "Mus musculus", "assay": "Decrease in fasting glucose levels in DIO C57/B6 mouse model in basal portion at 44 mg/kg/hr for 90 mins", "format": "functional, organism-based"}, "Rattus norvegicus [11]": {"species_on_record": "Rattus norvegicus", "assay": "Increase in [12C]-citrate levels in rat plasma measured over 140 to 150 mins by UPLC-MS/MS analysis", "format": "functional, organism-based"}, "Rattus norvegicus [12]": {"species_on_record": "Rattus norvegicus", "assay": "Increase in […][13C]-citrate levels in rat plasma measured over 140 to 150 mins by UPLC-MS/MS analysis", "format": "functional, organism-based"}, "Rattus norvegicus [13]": {"species_on_record": "Rattus norvegicus", "assay": "Increase in […][13C]-citrate levels in rat liver measured over 140 to 150 mins by UPLC-MS/MS analysis", "format": "functional, organism-based"}, "Mus musculus [14]": {"test_system": "Mus musculus", "assay": "Increase in urinary citrate output in C57BL/6J mouse at 250 mg/kg, po measured after 7 hrs by UPLC-MS/MS analysis", "format": "functional, Urine"}, "Mus musculus [15]": {"test_system": "Mus musculus", "assay": "Increase in urinary calcium level in C57BL/6J mouse at 250 mg/kg, po measured after 7 hrs by UPLC-MS/MS analysis", "format": "functional, organism-based", "conditions": "Urine"}, "[16]": {"target": "Angiotensin-converting enzyme (Homo sapiens) (UniProt P12821)", "assay": "Inhibition of ACE1 (unknown origin)"}, "[17]": {"target": "Prostaglandin G/H synthase 2 (Homo sapiens) (UniProt P35354)", "sequence (P35354 whole entry)": "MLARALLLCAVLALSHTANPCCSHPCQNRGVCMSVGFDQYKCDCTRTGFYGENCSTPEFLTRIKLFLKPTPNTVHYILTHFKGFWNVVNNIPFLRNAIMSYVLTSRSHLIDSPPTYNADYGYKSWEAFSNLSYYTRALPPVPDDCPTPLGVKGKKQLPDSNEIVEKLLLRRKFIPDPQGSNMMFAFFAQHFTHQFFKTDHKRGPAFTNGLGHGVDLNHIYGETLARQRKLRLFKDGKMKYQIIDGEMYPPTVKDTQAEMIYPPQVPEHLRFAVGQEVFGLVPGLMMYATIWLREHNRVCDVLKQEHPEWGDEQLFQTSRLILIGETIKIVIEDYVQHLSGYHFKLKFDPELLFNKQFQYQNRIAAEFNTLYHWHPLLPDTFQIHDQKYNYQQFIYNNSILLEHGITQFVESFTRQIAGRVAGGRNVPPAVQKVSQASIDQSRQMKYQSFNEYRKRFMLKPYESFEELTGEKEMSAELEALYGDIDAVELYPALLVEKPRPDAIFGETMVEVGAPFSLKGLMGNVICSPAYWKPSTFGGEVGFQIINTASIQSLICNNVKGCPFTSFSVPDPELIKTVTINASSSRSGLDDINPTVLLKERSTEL", "assay": "Inhibition of cyclooxygenase 2 (unknown origin)"}, "Cytochrome P450 1A2": {"target": "Cytochrome P450 1A2 (Homo sapiens, UniProt P05177)", "assay": "Inhibition of CYP1A2 (unknown origin)", "format": "ADME"}, "Cytochrome P450 2C8": {"target": "Cytochrome P450 2C8 (Homo sapiens, UniProt P10632)", "sequence (P10632 whole entry)": "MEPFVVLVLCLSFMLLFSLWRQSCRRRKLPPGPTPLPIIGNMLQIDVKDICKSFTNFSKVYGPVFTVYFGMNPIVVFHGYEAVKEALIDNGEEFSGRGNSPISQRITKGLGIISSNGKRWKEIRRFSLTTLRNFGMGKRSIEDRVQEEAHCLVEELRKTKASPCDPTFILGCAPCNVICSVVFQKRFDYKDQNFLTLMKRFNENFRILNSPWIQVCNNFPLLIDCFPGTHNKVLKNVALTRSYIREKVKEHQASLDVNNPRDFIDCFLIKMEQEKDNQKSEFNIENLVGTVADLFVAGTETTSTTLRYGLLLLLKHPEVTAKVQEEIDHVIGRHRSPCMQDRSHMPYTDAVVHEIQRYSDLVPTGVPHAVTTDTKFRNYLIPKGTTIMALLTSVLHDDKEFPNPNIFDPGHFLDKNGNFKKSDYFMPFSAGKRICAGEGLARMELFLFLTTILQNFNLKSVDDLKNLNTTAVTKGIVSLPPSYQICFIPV", "assay": "Inhibition of CYP2C8 (unknown origin)", "format": "ADME"}, "Cytochrome P450 2D6": {"target": "Cytochrome P450 2D6 (Homo sapiens, UniProt P10635)", "assay": "Inhibition of CYP2D6 (unknown origin)", "format": "ADME"}, "Cytochrome P450 3A4": {"target": "Cytochrome P450 3A4 (Homo sapiens, UniProt P08684)", "assay": "Inhibition of CYP3A4 (unknown origin)", "format": "ADME"}, "Homo sapiens": {"species_on_record": "Homo sapiens", "assay": "Inhibition of PDE3A1 (unknown origin)"}, "[18]": {"target": "3',5'-cyclic-AMP phosphodiesterase 4D (Homo sapiens) (UniProt Q08499)", "assay": "Inhibition of PDE4D3 (unknown origin)"}, "Bile salt export pump": {"target": "Bile salt export pump (Homo sapiens, UniProt O95342)", "assay": "Inhibition of ABCB11 (unknown origin)"}, "[19]": {"target": "Voltage-gated L-type calcium channel (Homo sapiens, UniProt Q13936+Q13698+Q01668+O60840)", "assay": "Inhibition of L type calcium channel (unknown origin)", "format": "protein assay"}, "[20]": {"target": "High affinity choline transporter 1 (Homo sapiens) (UniProt Q9GZV3)", "sequence (Q9GZV3 whole entry)": "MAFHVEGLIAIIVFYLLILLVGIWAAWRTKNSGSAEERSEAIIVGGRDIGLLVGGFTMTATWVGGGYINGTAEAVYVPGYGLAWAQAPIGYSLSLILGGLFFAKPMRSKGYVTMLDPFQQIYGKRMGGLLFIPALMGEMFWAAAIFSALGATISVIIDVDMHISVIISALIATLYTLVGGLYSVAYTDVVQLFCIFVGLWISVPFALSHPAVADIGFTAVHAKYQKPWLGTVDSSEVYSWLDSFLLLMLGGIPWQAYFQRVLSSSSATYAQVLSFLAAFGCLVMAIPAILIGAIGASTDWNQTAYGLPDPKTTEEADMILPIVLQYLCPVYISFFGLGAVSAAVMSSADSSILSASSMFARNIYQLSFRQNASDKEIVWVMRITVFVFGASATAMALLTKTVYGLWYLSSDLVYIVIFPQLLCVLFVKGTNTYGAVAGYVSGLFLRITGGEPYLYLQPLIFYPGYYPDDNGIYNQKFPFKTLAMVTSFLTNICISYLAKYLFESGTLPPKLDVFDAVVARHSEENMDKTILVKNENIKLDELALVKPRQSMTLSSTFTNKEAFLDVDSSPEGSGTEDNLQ", "assay": "Inhibition of choline transporter 1 (unknown origin)"}, "[21]": {"target": "Sodium-dependent dopamine transporter (Homo sapiens) (UniProt Q01959)", "assay": "Inhibition of DAT (unknown origin)"}, "[22]": {"target": "Voltage-gated inwardly rectifying potassium channel KCNH2 (Homo sapiens, UniProt Q12809)", "assay": "Inhibition of human ERG"}, "[23]": {"target": "Sodium-dependent noradrenaline transporter (Homo sapiens) (UniProt P23975)", "assay": "Inhibition of NAT (unknown origin)"}, "[24]": {"target": "Sodium-dependent phosphate transport protein 1 (Homo sapiens) (UniProt Q14916)", "assay": "Inhibition of NaPiA1 (unknown origin)"}, "[25]": {"target": "Sodium-dependent serotonin transporter (Homo sapiens) (UniProt P31645)", "sequence (P31645 whole entry, looked up)": "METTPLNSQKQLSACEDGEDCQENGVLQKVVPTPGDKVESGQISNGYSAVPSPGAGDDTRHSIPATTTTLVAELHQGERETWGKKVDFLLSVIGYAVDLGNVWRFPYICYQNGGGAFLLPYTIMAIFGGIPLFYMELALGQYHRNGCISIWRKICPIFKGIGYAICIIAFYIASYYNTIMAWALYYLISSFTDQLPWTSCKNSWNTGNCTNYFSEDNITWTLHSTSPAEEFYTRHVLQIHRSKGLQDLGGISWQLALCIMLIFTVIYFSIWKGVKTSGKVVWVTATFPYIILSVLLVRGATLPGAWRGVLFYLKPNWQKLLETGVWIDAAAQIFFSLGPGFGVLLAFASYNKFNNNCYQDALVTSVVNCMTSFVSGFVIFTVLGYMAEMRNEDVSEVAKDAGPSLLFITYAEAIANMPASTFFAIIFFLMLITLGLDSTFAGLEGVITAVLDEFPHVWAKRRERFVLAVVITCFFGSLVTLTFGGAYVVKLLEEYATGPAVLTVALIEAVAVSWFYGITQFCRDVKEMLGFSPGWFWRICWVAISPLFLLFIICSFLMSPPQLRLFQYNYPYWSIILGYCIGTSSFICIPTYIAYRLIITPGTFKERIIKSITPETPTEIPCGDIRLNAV", "assay": "Inhibition of 5HTT (unknown origin)"}, "[26]": {"target": "Alpha-1A adrenergic receptor (Homo sapiens) (UniProt P35348)", "assay": "Inhibition of ADRA1A (unknown origin)"}, "[27]": {"target": "Beta-1 adrenergic receptor (Homo sapiens) (UniProt P08588)", "assay": "Inhibition of ADRB1 (unknown origin)"}, "[28]": {"target": "Beta-2 adrenergic receptor (Homo sapiens) (UniProt P07550)", "assay": "Inhibition of ADRB2 (unknown origin)"}, "[29]": {"target": "Androgen receptor (Homo sapiens) (UniProt P10275)", "sequence (P10275 whole entry)": "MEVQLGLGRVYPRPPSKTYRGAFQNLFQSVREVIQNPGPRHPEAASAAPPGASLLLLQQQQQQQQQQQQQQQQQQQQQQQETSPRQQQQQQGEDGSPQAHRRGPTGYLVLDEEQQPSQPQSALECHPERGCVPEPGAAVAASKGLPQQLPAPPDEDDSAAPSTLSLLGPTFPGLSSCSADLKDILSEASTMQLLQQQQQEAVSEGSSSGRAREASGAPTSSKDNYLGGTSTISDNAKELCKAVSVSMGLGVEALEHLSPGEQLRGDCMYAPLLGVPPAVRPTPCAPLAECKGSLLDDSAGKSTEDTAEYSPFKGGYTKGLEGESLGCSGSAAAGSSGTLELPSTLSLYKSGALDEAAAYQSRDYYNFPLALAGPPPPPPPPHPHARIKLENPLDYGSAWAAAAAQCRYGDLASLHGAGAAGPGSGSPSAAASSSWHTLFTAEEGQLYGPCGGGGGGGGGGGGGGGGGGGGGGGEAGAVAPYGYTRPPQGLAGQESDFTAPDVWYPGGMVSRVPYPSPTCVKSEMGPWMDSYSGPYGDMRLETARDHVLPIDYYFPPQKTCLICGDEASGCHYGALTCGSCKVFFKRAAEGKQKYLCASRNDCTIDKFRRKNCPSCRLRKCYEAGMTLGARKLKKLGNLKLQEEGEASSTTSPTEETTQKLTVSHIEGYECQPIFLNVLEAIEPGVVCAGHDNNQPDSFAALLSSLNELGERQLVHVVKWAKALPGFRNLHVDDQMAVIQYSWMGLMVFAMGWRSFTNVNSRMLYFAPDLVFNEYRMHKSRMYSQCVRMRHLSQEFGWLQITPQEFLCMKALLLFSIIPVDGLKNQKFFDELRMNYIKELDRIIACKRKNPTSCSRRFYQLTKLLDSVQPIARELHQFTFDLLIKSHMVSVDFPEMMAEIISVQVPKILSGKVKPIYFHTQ", "assay": "Inhibition of Androgen receptor (unknown origin)"}, "[30]": {"target": "Type-1 angiotensin II receptor (Homo sapiens) (UniProt P30556)", "assay": "Inhibition of AGTR1 (unknown origin)"}, "[31]": {"target": "Vasopressin V1a receptor (Homo sapiens) (UniProt P37288)", "assay": "Inhibition of AVPR1A (unknown origin)"}, "[32]": {"target": "Cannabinoid receptor 1 (Homo sapiens) (UniProt P21554)", "assay": "Inhibition of CB1 (unknown origin)"}, "[33]": {"target": "D(1A) dopamine receptor (Homo sapiens) (UniProt P21728)", "assay": "Inhibition of D1 (unknown origin)"}, "[34]": {"target": "D(2) dopamine receptor (Homo sapiens) (UniProt P14416)", "sequence (P14416 whole entry)": "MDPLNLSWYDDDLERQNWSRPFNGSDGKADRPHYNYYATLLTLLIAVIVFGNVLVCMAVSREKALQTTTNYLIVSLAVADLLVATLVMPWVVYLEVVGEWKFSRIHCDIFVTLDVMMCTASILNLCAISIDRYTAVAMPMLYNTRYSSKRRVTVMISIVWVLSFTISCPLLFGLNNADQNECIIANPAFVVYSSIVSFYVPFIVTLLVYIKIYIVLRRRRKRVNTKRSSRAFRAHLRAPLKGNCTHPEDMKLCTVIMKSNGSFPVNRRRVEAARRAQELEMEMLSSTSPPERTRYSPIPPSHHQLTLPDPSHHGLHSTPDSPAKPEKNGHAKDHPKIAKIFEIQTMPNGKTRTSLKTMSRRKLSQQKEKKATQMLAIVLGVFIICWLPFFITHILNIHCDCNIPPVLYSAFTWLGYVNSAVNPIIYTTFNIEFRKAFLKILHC", "assay": "Inhibition of D2 (unknown origin)"}, "[35]": {"target": "Endothelin-1 receptor (Homo sapiens) (UniProt P25101)", "assay": "Inhibition of ETA (unknown origin)"}, "[36]": {"target": "Gamma-aminobutyric acid receptor subunit alpha-1 (Homo sapiens) (UniProt P14867)", "assay": "Inhibition of GABRA1 (unknown origin)"}, "[37]": {"target": "Histamine H1 receptor (Homo sapiens) (UniProt P35367)", "assay": "Inhibition of H1 (unknown origin)"}, "[38]": {"target": "Histamine H2 receptor (Homo sapiens) (UniProt P25021)", "assay": "Inhibition of H2 (unknown origin)"}, "[39]": {"target": "Muscarinic acetylcholine receptor M1 (Homo sapiens) (UniProt P11229)", "assay": "Inhibition of M1 (unknown origin)"}, "[40]": {"target": "Muscarinic acetylcholine receptor M3 (Homo sapiens) (UniProt P20309)", "sequence (P20309 whole entry, looked up)": "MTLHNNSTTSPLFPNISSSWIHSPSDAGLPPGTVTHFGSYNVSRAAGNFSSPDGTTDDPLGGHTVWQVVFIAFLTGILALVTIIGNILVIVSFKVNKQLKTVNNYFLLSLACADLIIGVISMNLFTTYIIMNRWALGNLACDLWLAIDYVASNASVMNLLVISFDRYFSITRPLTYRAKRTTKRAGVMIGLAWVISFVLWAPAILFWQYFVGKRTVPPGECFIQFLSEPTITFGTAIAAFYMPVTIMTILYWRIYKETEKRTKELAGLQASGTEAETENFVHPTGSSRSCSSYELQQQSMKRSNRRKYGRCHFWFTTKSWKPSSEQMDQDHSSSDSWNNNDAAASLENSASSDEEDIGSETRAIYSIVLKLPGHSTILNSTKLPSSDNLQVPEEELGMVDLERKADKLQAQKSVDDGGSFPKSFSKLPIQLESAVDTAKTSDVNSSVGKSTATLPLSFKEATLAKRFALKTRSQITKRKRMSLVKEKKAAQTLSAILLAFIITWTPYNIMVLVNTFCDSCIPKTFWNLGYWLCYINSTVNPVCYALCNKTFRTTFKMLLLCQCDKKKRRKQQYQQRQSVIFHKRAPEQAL", "assay": "Inhibition of M3 (unknown origin)"}, "[41]": {"target": "Kappa-type opioid receptor (Homo sapiens) (UniProt P41145)", "assay": "Inhibition of OPRK1 (unknown origin)"}, "[42]": {"target": "Mu-type opioid receptor (Homo sapiens) (UniProt P35372)", "assay": "Inhibition of MOP (unknown origin)"}, "[43]": {"target": "5-hydroxytryptamine receptor 3A (Homo sapiens) (UniProt P46098)", "assay": "Inhibition of 5HT3 receptor (unknown origin)"}}, "note": "Activity calls are given as the source filed them. The calls are words filed in the database; no cut-off is given here.", "data": [{"smiles": "COc1ncc(C)cc1CC[C@@](O)(CC(=O)O)C(=O)O", "values": [{"measurement": "IC50", "setting": "[1]", "value": 0.74, "unit": "µM"}, {"measurement": "IC50", "setting": "[2]; read-out: IC50", "value": 14.1, "unit": "µM"}, {"measurement": "IC50", "setting": "[2]; read-out: pIC50 (converted)", "value": 10, "unit": "µM"}, {"measurement": "hepatocyte CLint", "setting": "[3]", "value": "< 6", "unit": "µL/min/1e6 cells"}, {"measurement": "IC50", "setting": "Rattus norvegicus [4]", "value": 1.4, "unit": "µM"}, {"measurement": "IC50", "setting": "Rattus norvegicus [5]", "value": 1, "unit": "µM"}, {"measurement": "fraction unbound", "setting": "[6]", "value": 0.135}, {"measurement": "clearance", "setting": "[7]", "value": 0.948, "unit": "L/h/kg"}, {"measurement": "CL renal", "setting": "[8]", "value": 0.264, "unit": "L/h/kg"}, {"measurement": "Vd", "setting": "[9]", "value": 0.54, "unit": "L/kg"}, {"measurement": "inhibition", "setting": "Mus musculus [10]", "value": "Active"}, {"measurement": "Activity", "setting": "Rattus norvegicus [11]", "value": "Active"}, {"measurement": "Activity", "setting": "Rattus norvegicus [12]", "value": "Active"}, {"measurement": "Activity", "setting": "Rattus norvegicus [13]", "value": "Active"}, {"measurement": "fold change (FC)", "setting": "Mus musculus [14]", "value": 230}, {"measurement": "Activity", "setting": "Mus musculus [15]", "value": "Active"}, {"measurement": "inhibition", "setting": "[16]", "value": "inactive"}, {"measurement": "inhibition", "setting": "[17]", "value": "inactive"}, {"measurement": "inhibition (INH)", "setting": "Cytochrome P450 1A2", "value": "Not Active"}, {"measurement": "inhibition (INH)", "setting": "Cytochrome P450 2C8", "value": "Not Active"}, {"measurement": "inhibition (INH)", "setting": "Cytochrome P450 2D6", "value": "Not Active"}, {"measurement": "inhibition (INH)", "setting": "Cytochrome P450 3A4", "value": "Not Active"}, {"measurement": "inhibition", "setting": "Homo sapiens", "value": "inactive"}, {"measurement": "inhibition", "setting": "[18]", "value": "inactive"}, {"measurement": "inhibition (INH)", "setting": "Bile salt export pump", "value": "Not Active"}, {"measurement": "inhibition (INH)", "setting": "[19]", "value": "Not Active"}, {"measurement": "inhibition", "setting": "[20]", "value": "inactive"}, {"measurement": "inhibition", "setting": "[21]", "value": "inactive"}, {"measurement": "inhibition (INH)", "setting": "[22]", "value": "Not Active"}, {"measurement": "inhibition", "setting": "[23]", "value": "inactive"}, {"measurement": "inhibition", "setting": "[24]", "value": "inactive"}, {"measurement": "inhibition", "setting": "[25]", "value": "inactive"}, {"measurement": "inhibition", "setting": "[26]", "value": "inactive"}, {"measurement": "inhibition", "setting": "[27]", "value": "inactive"}, {"measurement": "inhibition", "setting": "[28]", "value": "inactive"}, {"measurement": "inhibition", "setting": "[29]", "value": "inactive"}, {"measurement": "inhibition", "setting": "[30]", "value": "inactive"}, {"measurement": "inhibition", "setting": "[31]", "value": "inactive"}, {"measurement": "inhibition", "setting": "[32]", "value": "inactive"}, {"measurement": "inhibition", "setting": "[33]", "value": "inactive"}, {"measurement": "inhibition", "setting": "[34]", "value": "inactive"}, {"measurement": "inhibition", "setting": "[35]", "value": "inactive"}, {"measurement": "inhibition", "setting": "[36]", "value": "inactive"}, {"measurement": "inhibition", "setting": "[37]", "value": "inactive"}, {"measurement": "inhibition", "setting": "[38]", "value": "inactive"}, {"measurement": "inhibition", "setting": "[39]", "value": "inactive"}, {"measurement": "inhibition", "setting": "[40]", "value": "inactive"}, {"measurement": "inhibition", "setting": "[41]", "value": "inactive"}, {"measurement": "inhibition", "setting": "[42]", "value": "inactive"}, {"measurement": "inhibition", "setting": "[43]", "value": "inactive"}]}]}
